In US20100160432A1, “Curative drug for neurodegenerative diseases” (priority 2007, published 2010):
Where two headings read alike, the source gives them in different places.

Experiments:
SH-SY5Y cells = test: Cytoprotection against linoleic acid hydroperoxide (LA-OOH) cell disorder, SH-SY5Y cells, methylene blue dye uptake; type: cell-based, human; conditions: for Protection Rate (%) / Survival Rate (%): SH-SY5Y cells, LA-OOH 70 μM, about 20 h
Procedure: (§1) Of the hydroquinone derivatives expressed in the aforesaid Formula 1, 2,3,5-trimethyl-hydroquinone-1-hexylether (Compound 1) was examined in comparison with vitamin E with respect to the activity of inhibiting toxicity of lipid peroxide to nerve cells. PC12 cells as a cell culture model of for human neuroblastoma-derived SH-SY5Y and rat pheochromocytoma cells were cultivated by the law of the art. A culture media was prepared in effect by adding FCS (fetal calf serum) to Dulbecco's Eagle medium (DMEM) and used further with the addition of NaHCO3 (3.7 g/L), penicillin G (100 U/mL) and Streptomycin ([…]). A cultivation was performed by seeding 6×10^4 SH-SY5Y cells and 4×10^4 PC12 cells in a CO2 incubator at 37° C. using a microplate with 24 macroscopic pores. After 48 hours, the aforesaid Compound 1 or vitamin E was added thereto. Then after about 30 minutes, 70 μM of linoleic acid hydroperoxide were added thereto for the SH-SY5Y cells and 35 μM of the same were added for PC12 cells. After cultivation for about 20 hours, the number of surviving cells was measured.
(§2) The measurement of the surviving cells was made by a Methylene blue dye uptake method. To be more specific, the cells were rinsed twice with PBS (phosphate buffered saline free from Mg and Ca), and then, fixated with 10% formalin for 5 minutes. Further, the cells were rinsed three times with distilled water, stained with 0.05% methylene blue solution for 60 minutes, and rinsed three times with distilled water. Then, 20 minutes after adding 0.33N HCl thereto, the absorbance of the cells was measured at 665 nm. The survival rate and protection rate of the cells were calculated on the basis of the measured result by the following equation.
(§3) Cell survival rate (%)=[absorbance of treated cells with testing additives]/[absorbance of non-treated cells]×100
(§4) Protection rate (%)={1−(100−[survival rate of treated cells with testing additives])/(100−[survival rate of cells with no additives])}×100

PC12 cells = test: Cytoprotection against linoleic acid hydroperoxide (LA-OOH) cell disorder, PC12 cells, methylene blue dye uptake; type: cell-based, rat; conditions: for Protection Rate (%) / Survival Rate (%): LA-OOH 35 μM, about 20 h; for protection rate of PC12 cells (up to) / survival rate of PC12 cells (up to): highest value over the doses tested
Procedure: as §1, §2, §3, §4

NO production = conditions: compared with vitamin E; cited from earlier work
[1] = compared with vitamin E, cited from earlier work

Molecule | Protection Rate (%) (SH-SY5Y cells; dosage 0.5 μM) | Survival Rate (%) (SH-SY5Y cells; dosage 0.5 μM) | Protection Rate (%) (SH-SY5Y cells; dosage 1.0 μM) | Survival Rate (%) (SH-SY5Y cells; dosage 1.0 μM) | Protection Rate (%) (SH-SY5Y cells; dosage 5.0 μM) | Survival Rate (%) (SH-SY5Y cells; dosage 5.0 μM) | Protection Rate (%) (SH-SY5Y cells; dosage 10.0 μM) | Survival Rate (%) (SH-SY5Y cells; dosage 10.0 μM) | Protection Rate (%) (PC12 cells; dosage 0.1 μM) | Survival Rate (%) (PC12 cells; dosage 0.1 μM) | Protection Rate (%) (PC12 cells; dosage 0.5 μM) | Survival Rate (%) (PC12 cells; dosage 0.5 μM) | Protection Rate (%) (PC12 cells; dosage 1.0 μM) | Survival Rate (%) (PC12 cells; dosage 1.0 μM) | Protection Rate (%) (PC12 cells; dosage 5.0 μM) | Survival Rate (%) (PC12 cells; dosage 5.0 μM) | protection rate of PC12 cells (up to) (PC12 cells) | survival rate of PC12 cells (up to) (PC12 cells) | further results
CCCCCCOc1cc(C)c(O)c(C)c1C [Compound 1, 2,3,5-trimethyl-hydroquinone-1-hexylether] | 14.8% | 83.41% | 22.1% | 84.83% | 38.3% | 87.97% | 33.5% | 87.04% | 21.5% | 45.68% | 80.6% | 86.57% | 88.4% | 91.96% | 88.9% | 92.31% | around 90% | around 90% | toxicity in comparison with vitamin E (SH-SY5Y cells; SH-SY5Y cells and PC12 cells, from Table 1 and Table 2): lower toxicity; NO-production inhibitory activity relative to vitamin E (NO production): 500 times as strong as vitamin E; antioxidative properties relative to vitamin E [1]: double that of vitamin E; antioxidative properties relative to vitamin E ([1]; listed as 2,3,5-trimethyl-hydroquinone-1-hexylether): twice as strong as vitamin E
Vitamin E [reference compound] | 14.5% | 83.72% | −6.3% | 79.77% | −6.2% | 79.78% | 4.3% | 81.78% | 6.8% | 37.16% | 4.9% | 35.88% | 4.8% | 35.85% | 14.8% | 42.57% | around 15% | about 42% | –
